| melting point [°C] | Compound |
| --- | --- |
| 143 to 144 | CC(C)c1nc(-c2ncn3c2COC(=O)c2ccccc2-3)no1 |
| 147 to 148 | CCOC(=O)/C=C/c1ccc2c(=O)n(CC(C)C)c(CNC(=O)OC(C)(C)C)c(-c3ccccc3)c2c1 |
| 231 to 233 | Cc1cc(Br)cc(-c2ccc3c(c2)C(C)(C)OC(=O)N3)c1 |
| 128 to 131 | O=c1cc(C(F)(F)F)nc(Cl)n1-c1cc(Oc2ccccc2[N+](=O)[O-])c(Cl)cc1F |
| 165 to 167 | COc1cc(SCc2sc(-c3ccc(C(F)(F)F)cc3)nc2C)c(C)cc1OCC(=O)O |
| 127 | CC(NS(=O)(=O)c1cc(C(=O)CCl)ccc1Cl)c1ccccc1 (stereo not given) |
| 107 to 108 | CCOC(=O)c1cc(-c2ccc(Cl)cc2)n(-c2ccc(OC)cc2)n1 |
| 169 | CCc1c(CNS(=O)(=O)c2cccc(Cl)c2)nn(-c2ccc(Cl)cc2Cl)c1-c1ccc(Br)cc1 |
| 140 to 142 | Cc1ccc(-c2nnc(N3CCC(C)CC3)nc2-c2ccc(C)cc2)cc1 |
| 90 to 91 | CC(C)(C)c1ccc(S(=O)(=O)C[N+](=O)[O-])cc1 |
| 142 to 143 | O=C(c1ccc(F)cc1)c1ccc(C(c2ccc(C(=O)c3ccc(F)cc3)cc2)(C(F)(F)F)C(F)(F)F)cc1 |
| 59 to 60 | CN1C(=O)CC[C@]2(C)c3ccc(-c4ccc([N+](=O)[O-])cc4)cc3CC[C@@H]12 |
| 143 | CC(=O)c1ccccc1-c1cccc(C(=O)O)c1 |
| 120 to 122 | CN(C)CC1CC(c2ccc(Cl)cc2)c2ccccc2O1 (stereo not given) |
| 254 to 260 | Oc1cc(Cl)nnc1-c1ccc(F)cc1 |
| 113 | CN(C)S(=O)(=O)Nc1cccc(-c2cccc(-c3nc(-c4ccc(C(F)(F)F)cc4)cc(C(F)(F)F)n3)c2)c1 |
| 194 to 196 | O=C(c1cc([N+](=O)[O-])ccc1Nc1ccncc1)N1CCCCC1 |
| 186 to 188 | CCc1nn2c(N)cc(C)nc2c1S(=O)(=O)c1ccc(OC)cc1 |
| 212 to 213 | FC(F)(F)CSc1nc(-c2ccc(Cl)cc2)c(-c2ccc(Cl)cc2)[nH]1 |
| 149 to 150 | CNC(=O)Cc1ccc2ccn(C3CCN(CCc4ccc(F)cc4)CC3)c2c1 |
| 192 to 193 | CCCCOc1nc(N)c2[nH]c(=O)n(CCCCN(CC(C)(C)O)S(=O)(=O)c3cccc(CC(=O)OC)c3)c2n1 |
| 120 to 122 | CCc1ccc(S(=O)(=O)Nc2ccc(Cl)cc2)cc1 |
| 247 to 248 | CN(C)c1cc2c(cc1Cl)NC(=O)CC(c1cccc(-c3csc(N)n3)c1)=N2 |
| 219 to 221 | CCc1cccc(C)c1C(=O)N[C@@H](Cc1ccc(-c2c(C(F)(F)F)cc(C)n(C)c2=O)cc1)C(=O)O |
| 67 to 80 | CCOC(=O)CN1C(=O)C(=C(C)C)SC1=Nc1cc(-n2c(=O)cc(C(F)(F)F)n(C)c2=O)c(F)cc1Cl |
| 148 to 149 | CN(C)c1ccccc1Sc1nc2ccccc2[nH]1 |
| 203 to 204 | CCCOc1ccccc1-c1nc2nc(-c3ccccc3)ncc2c(=O)[nH]1 |

| melting point [°C] | Compound |
| --- | --- |
| 186 to 187 | Cc1cccc(COc2nn3c(-c4ccccc4)nnc3c3ccccc23)n1 |
| 131 to 132 | CC(O)c1nnc(-c2ccc3occ(-c4cccc(OC(F)(F)F)c4)c3c2)o1 (stereo not given) |
| 125 to 127 | COC(=O)c1nc(N(C)C)ccc1Oc1nc(OC)cc(OC)n1 |
| 152 to 154 | Nc1ccc(Oc2cccc(Oc3ccc(N)cc3)n2)cc1 |
| 210 | CCCCS(=O)(=O)c1ccc(C(=O)Nc2ccc3cc(CN4CCCC4)cnc3c2C)cc1 |
| 125 to 126 | O=C(c1ccccc1)c1cc([N+](=O)[O-])ccc1O |
| 130 to 140 | C[C@H](NC(=O)Cc1ccc(F)cc1)C(=O)N[C@@H]1C(=O)Nc2ccccc2O[C@@H]1c1ccccc1 |
| 82 to 85 | O=C1NCC(c2cccc(C(F)(F)F)c2)C1c1cn2c3c(cccc13)CCC2 (stereo not given) |
| 146 to 149 | O=C(CCl)Nc1cc(Oc2ncccc2C(F)(F)F)c(Cl)cc1F |
| 161 to 162 | O=C(NCCO)c1cccc(-c2ccc3ccn(Cc4ccc(Cl)cc4Cl)c3n2)c1 |
| 209 | O=C(Nc1cccc(S(=O)(=O)N(CCO)CCO)c1)c1cnn2c(C(F)(F)F)cc(-c3ccc(C(F)(F)F)cc3)nc12 |
| 190 to 196 | COC(=O)c1cccc2[nH]c3cc4ccccc4c(OC)c3c12 |
| 141 to 142 | COC(=O)c1ccc2oc(-c3cccs3)nc2c1 |
| 141 to 142 | COc1cc2c(c3c1OC(C)(C)C3)C(c1cccc(-c3ccccc3)c1)=NC(C)(C)C2 |
| 113 to 114 | CC(=C1SCCCS1)c1ccc(Sc2ccc(O)cc2)cc1 |
| 237 to 238 | O=C(CNc1ccc2[nH]c(=O)[nH]c2c1)N1CCC(Cc2ccccc2)CC1 |
| 75 to 77 | O=S(=O)(Nc1cccc(CCOCc2cccc(-c3ccccc3)n2)c1)C(F)(F)F |
| 115 to 117 | CN=Cc1ccc(-c2ccc(OC)c(Br)c2)cc1 |
| 149 to 151 | O=C(O)[C@H](Cc1ccccc1)C[C@@H](Cc1ccccc1)C(=O)N[C@@H](COCc1ccccc1)C(=O)O |
| 166 to 168 | Oc1ccc2oc(-c3ccc(F)cc3)nc2c1 |
| 197 to 199 | O=C1c2ccncc2C(=O)c2c(F)ccc(F)c21 |
| 98 to 105 | Cc1ccc(S(=O)(=O)NC(=O)OCCc2ccc(-n3c(CCC(=O)N4CCCC4)nc4cc(C(F)(F)F)c(Cl)cc43)cc2)cc1 |
| 183 to 184 | OCCC1c2ccccc2C(O)=NN1c1cccc(C(F)(F)F)c1 (stereo not given) |
| 180 to 182 | Cc1cc2c(-c3ccccc3)nc(N3CCN(CC(O)c4ccc(F)cc4)CC3)nc2s1 (stereo not given) |
| 113 to 115 | CC(Cc1ccc(CCNS(=O)(=O)c2ccccc2)cc1)C(=O)O (stereo not given) |
| 180 to 181 | CCN1C(=O)Cc2cc(OCc3ccccc3C(=O)O)ccc21 |
| 251 | CCCc1nc2ccnn2c(O)c1Cc1ccc(-c2ccccc2C#N)cc1 |

The remaining lines, values behind:

| Compound | melting point [°C] |
| --- | --- |
| O=C(O)CCc1c(C(=O)O)[nH]c2cc(Br)cc(Br)c12 | 259 |
| CCOC(=O)c1c(C)nc(OCC)c2nnn(CC)c12 | 56 to 58 |
| Cc1cnc(NC2CCC(CCN3CCN(c4ccccc4)CC3)CC2)nc1 (stereo not given) | 190 |
| O=C(CCC(=O)N1CCC[C@H]1C(=O)O)c1cccs1 | 100 to 102 |
| O=C(Nc1nonc1-c1ccc(Cl)cc1)NC1CCCCC1 | 216 |
| CCN(CC)C(=O)NC1CC2c3cccc4[nH]c(C(C)=O)c(c34)CC2N(C)C1 (stereo not given) | 114 to 116 |
| CCOC(=O)CCCc1csc(NC(=O)NCc2ccccc2)n1 | 157 |
| COC(=O)C(=O)NCCCCCC1CCSS1 (stereo not given) | 42 to 43 |
| CCOC(=O)CCC1NC(=O)CN1Cc1ccccc1 (stereo not given) | 60 to 62 |
| CC(C)(C)OC(=O)N1CCC[C@H]1COc1cccc2[nH]ccc12 | 40 to 41 |
| CCOC(=O)/C=C/c1ccc(OCCOC)cc1OS(=O)(=O)C(F)(F)F | 37.1 to 37.3 |
| CCn1c(=O)c2c(-c3nc(C4CC4)no3)ncn2c2cccnc21 | 262 to 263 |
| CCc1c(C)c2ccc(O)cc2oc1=O | 201 to 203 |
| BrCCCCCOc1ccc2c(c1)OCO2 | 54 to 57 |
| COc1cc2nc(SCc3nccc(N4CCOCC4)c3Cl)[nH]c2cc1OC | 109 to 112 |
| COC(=O)c1cc(C(=O)OC)n(-c2ccc(Cl)cc2C(=O)c2ccccc2)n1 | 118 to 120 |
| Clc1ccc2[nH]cc(C3CCNCC3)c2c1 | 156 to 158 |
| Cc1ccc2c(=O)c(C(=O)O)cn(N)c2n1 | 239 to 240 |
| COC(=O)c1cncn1C1c2ccsc2CC1(C)C (stereo not given) | 62 to 63 |
| CC(C)(Cc1ccc(Cl)cn1)C(N)=O | 51.4 to 53.4 |
| NNc1ccnc(-c2ccc([N+](=O)[O-])o2)n1 | 220 to 222 |
| COc1ccc(Oc2nnn[nH]2)cc1 | 150 |
| COc1cc(C=O)c(OC)c2c1C(C)(C)CCC2(C)C | 55 to 57 |
| O=S(=O)(CC(Cl)(Cl)Cl)c1cc(Cl)ccc1Cl | 96 |
| CC(CN(O)C(N)=O)OCc1ccco1 (stereo not given) | 59 to 62 |
| O=C1NN=C(c2ccc3c(c2)CCN(C2CCC2)CC3)C2CC12 (stereo not given) | 129 to 132 |

| Compound | melting point [°C] |
| --- | --- |
| O=Cn1cc(Cl)c(-c2cccc(Cl)c2[N+](=O)[O-])c1 | 138 |
| O=C(NO)NCCc1cc2ccccc2o1 | 157 to 158 |
| COc1ccc(Cl)n2nc(SCc3ccccc3)nc12 | 99 to 100 |
| O=C(Nc1cnccn1)C(Cl)(Cl)Cl | 68 |
| O=C(Nc1n[nH]c(=S)s1)N[C@@H](Cc1ccccc1)C(=O)N1CCOCC1 | 213 to 216 |
| CCCCN1NC(=O)CC2CCc3cc(N)ccc3C21 (stereo not given) | 140 to 142 |
| Cc1coc2c1C(=O)CC(c1cccs1)C2 (stereo not given) | 81 to 82 |
| CC(=CC#N)Cn1sc2ccccc2c1=O | 128 to 130 |
| O=C(O)C1=CSCCO1 | 144 |
| COc1cc(C)c(C=O)c(OC)c1OC | 55 to 57 |
| CN(CCOc1ccc(CC2SC(=O)NC2=O)cc1)c1nccs1 (stereo not given) | 186 |
| O=C(O)CCCSc1cccc(Br)n1 | 72 to 74 |
| COC(=O)c1cc(I)ccc1N(C)S(C)(=O)=O | 105 to 106 |
| COc1ccc(NC(=O)OCC2(C(C)=O)CC3C=CC2C3)cc1C (stereo not given) | 121 to 122 |
| Cn1cnc2c(N)cc(Br)cc21 | 170 |
| O=C(N[C@H]1CCN(CCc2ccc(F)cc2)C1)C(C1CCCCC1)C1CCCCC1 | 122 to 124 |
| CC(CCNC(=O)c1ccc(Cl)s1)n1ccnc1 (stereo not given) | 141 to 143 |
| CC(C)=C(C(=O)OCc1ccccc1)N1C(=O)C(Br)(Br)C1Br (stereo not given) | 68 to 70 |
| Cc1noc(-c2ccc(C(=O)O)s2)n1 | 226 to 228 |
| C#CCCCCCCCCOc1cccc(C(N)=O)c1 | 111 to 112 |
| CCCC(SCC(=O)O)c1cc2c(cc1C)OCO2 (stereo not given) | 77.5 to 78 |
| O=C(O)CCCCc1c[nH]c2ccccc12 | 80 to 83 |
| N=C(Nc1ccccc1CN1CCOCC1)N1CCOCC1 | 118 to 119 |
| CC(C)c1cc(O)cc2c1C(=O)N(CBr)S2(=O)=O | 167 to 169 |
| CC(C)C(=O)NCC(=NNC(N)=S)c1ccccc1 | 183 to 185 |

Reference: a melting point compilation (Tetko et al.; mined from patent text by program, amines drawn as free bases though some values may be those of a salt)
